Results: patent publication US20110160303A1, “N-ALKYLCARBONYL-AMINO ACID ESTER AND N-ALKYLCARBONYL-AMINO LACTONE COMPOUNDS AND THEIR USE” (Edward Tak WEI, priority 2005, published 2011)

Columns and labels:
oral cavity = assay: Oral cavity test, substance placed on dorsal surface of the tongue; type: in vivo, human; details: Study 7, 2 mg per dose
Method: The subject is instructed to close and hold the substance in the mouth for at least 10 seconds and not to swallow. The description of sensations is then recorded at 5 minute intervals.
The compounds of Formula (1) and (2) are white crystalline solids at room temperatures. These compounds were tested as such, or mixed 1:1 with powdered or granulated sugar. The test substances were applied at 1 to 5 mg on the mid-point of the dorsal surface of the tongue using a metal spatula or a plastic applicator. After depositing the test substance on the tongue, the subject was instructed to keep the mouth closed and allow the fluids of the mouth to inter-mix with the test substance and to distribute it to the back of the mouth (oropharynx). The presence and duration of subjective sensations from the mouth was then noted.
In normal subjects, the effects of the D-Ala methyl and ethyl ester compounds falling within Formula (1) ((R)-2-[((1R,2S,5R)-2-isopropyl-5-methyl-cyclohexanecarbonyl)-amino]-propionic acid methyl or ethyl ester)) were examined. Three doses of 1, 2 and 4 mg per application were examined and compared to a similar dose of the L-Ala methyl or ester analog ((S)-2-[((1R,2S,5R)-2-isopropyl-5-methyl-cyclohexanecarbonyl)-amino]-propionic acid methyl or ethyl ester). At the 2 or 4 mg dose, all compounds produced pleasant and robust cooling sensations on the tongue, extending down to the back of throat, and lasted for about 30 minutes and longer. The onset effect was usually within 30 seconds of application.

[1] = Octanol/water partition coefficient; type: physicochemical
Method: The octanol/water partition coefficients (given in log P units) for a number of compounds were determined and are shown in Table 7, together with the threshold for cooling on the tongue tested at 40 mM. […] A longer duration of action was not precisely matched with log P values.

skin above the upper lip = assay: Cooling sensation on facial skin, ointment applied to skin above the upper lip; type: in vivo, human; parameters: key to refreshing cooling and absence of skin irritation or eye irritation (“perfect cool”): (*) denotes compounds with refreshing cooling and absence of skin irritation or eye irritation after facial skin or periorbital applications; a “perfect cool.”; details: for Duration of Skin Cooling: 40 mM (1% wt/vol) ointment; for Duration of Skin Cooling / Duration of Action On-Off (minutes): On (onset) / Duration of Action On-Off (minutes): duration (offset minus onset) / Duration of Action On-Off (minutes): Off (offset): skin above upper lip; for Duration of Action On-Off (minutes): On (onset): 40 mM (~1% wt/vol) Aquaphor ointment, 40 to 70 mg, time to reach 2 units of coolness; for Duration of Action On-Off (minutes): duration (offset minus onset) / Duration of Action On-Off (minutes): Off (offset): 40 mM Aquaphor ointment; for Duration of Action On-Off (minutes): Off (offset): time when coolness drops below 2 units; for refreshing cooling and absence of skin irritation or eye irritation (“perfect cool”): after facial skin or periorbital applications
From the text: A reliable place for topical application is the skin above the upper lip (above the vermilion border of the lips), on the philtrum, lateral to the philtrum until the nasolabial folds, and on the lower nostrils (subnasale). This part of the face is known to be densely innervated with cold receptors, second only to the surfaces of the eyeball and anogenitalia. A second location is on or below the malar eminence (cheekbone). The skin above the cheekbone is thicker than above the lips, and therefore has a higher threshold for activation. At both loci, tingling, cool and cold sensations in the skin may be experienced and rated for time of onset and intensity.
The intensity of the subjective skin sensation is rated as 0, 1, 2 or 3 with: 0 as no change; 1 as slight coolness, cold, or tingling; 2 as clear-cut signal of coolness, cold, or tingling; and 3 as robust cooling or cold. The intervals for recording sensations are 5 to 10 minutes, until two successive zeroes are obtained. The results (shown in FIGS. 1 and 2) are averaged values of 4 to 6 separate trials in the same individual. The data are plotted using SigmaPlot® (Systat Software, Point Richmond Calif.) and a smoothing function with a negative exponential was used for analysis and statistical fit of the results. Confirmatory trials of cooling action of the long-acting NACE compounds were obtained in 2 to 4 individuals but not quantified for some because of the large number of chemicals that were evaluated.
The onset of drug action is taken as the time to reach 2 units of coolness intensity, and offset of drug action is the time when coolness intensity drops below 2, after previously surpassing 2 units. The duration of cooling action is defined as the offset time minus the onset time. […] The quality of the sensation is noted, for example, as pure refreshing coolness, or if the sensation is accompanied by irritation (stinging or burning). The quality of the sensation is not rated for intensity.
For bioassay on the skin, approximately 30 mg was stirred and dissolved in 3 g of warm liquid Aquaphor® ointment to a yield a 40 mM (˜1% wt/vol) ointment. The exact amount was adjusted so that the molar equivalent was about 35 to 40 mM. After cooling, 40 to 70 mg of the solid ointment was placed on the tip of a plastic stick and applied to the skin above the upper lip, on the philtrum, and lateral to the philtrum, up to the nasolabial folds, of test subjects and the onset and duration of cooling sensations noted.
The intensity of the subjective skin sensation was rated as 0, 1, 2 or 3 with: 0 as no change; 1 as slight coolness, cold, or tingling; 2 as clear signal of coolness, cold, or tingling; and 3 as robust cooling or cold. The intervals for recording sensations were 5 to 10 minutes, until two successive zeroes were obtained. The results (shown in FIGS. 1 and 2) are averaged values of 4 to 6 separate trials in the same individual. The data are plotted using SigmaPlot® (Systat Software, Point Richmond, Calif., USA) and a smoothing function with a negative exponential was used for analysis and statistical fit of the results.
The onset of drug action was taken as the time to reach 2 units of coolness intensity, and offset of drug action was the time when coolness intensity drops below 2, after previously surpassing 2 units. The duration of cooling action was defined as the offset time minus the onset time. […] The quality of the sensation was also noted: such as pure refreshing coolness, or if the sensation was accompanied by irritation (stinging or burning). The quality of the sensation was not rated for intensity.
Test compounds were singly applied to the skin above the upper lips at a 40 to 70 mg dose of a 1% wt/vol ointment.

tongue = assay: Threshold for cooling on the tongue; type: in vivo, human; details: threshold for cooling on the tongue
Method: Watson et al. (U.S. Pat. No. 4,178,459) tested the properties of N-substituted p-menthane carboxamides on volunteers by putting filter paper (1×1 cm), impregnated with a known amount of compound, onto the dorsal surface of the tongue of the test subject. After 30 seconds, the subject was required to report presence or absence of a cooling effect. […] The average threshold of (−)-menthol for 6 subjects was 0.25 μg, but there was a 100-fold variation in individual sensitivity. As noted above, coolness signals detected from the dorsal surface of the tongue may be confounded by gustatory, olfactory, and other variables, as well as by dilution from saliva. The octanol/water partition coefficients (given in log P units) for a number of compounds were determined and are shown in Table 7, together with the threshold for cooling on the tongue tested at 40 mM. […] A longer duration of action was not precisely matched with log P values.

Compound | cooling sensation at the back of the throat (oral cavity) | logP [1] | Duration of Skin Cooling (skin above the upper lip) | Duration of Action On-Off (minutes): On (onset) (skin above the upper lip) | Duration of Action On-Off (minutes): duration (offset minus onset) (skin above the upper lip) | Duration of Action On-Off (minutes): Off (offset) (skin above the upper lip) | refreshing cooling and absence of skin irritation or eye irritation (“perfect cool”) (skin above the upper lip) | Log P [1] | Threshold tongue (tongue)
CC(C)[C@@H]1CC[C@@H](C)C[C@H]1C(=O)NC1CCOC1=O (mixture of isomers) [racemic Hsl, (1R,2S,5R)-2-isopropyl-5-methyl-cyclohexanecarboxylic acid (2-oxo-tetrahydro-furan-3-yl)-amide] | robust and prolonged cooling | 2.5 | 1.4 h | 2 min | 84 min | 86 min | racemic Hsl (*) | – | –
CCOc1ccc(NC(=O)C2CC(C)CCC2C(C)C)cc1 (centres unmarked) [CPS-306] | – | – | not active | – | inactive | – | – | 5.8 | –
CCCCOc1ccc(NC(=O)C2CC(C)CCC2C(C)C)cc1 (centres unmarked) [CPS-308] | – | – | not active | – | inactive | – | – | 6.9 | –
COc1ccc(NC(=O)C2CC(C)CCC2C(C)C)c(OC)c1 (centres unmarked) [CPS-309] | – | – | 0.6 h | 13 min | 37 min | 50 min | – | 5.0 | –
CCCOc1ccc(NC(=O)C2CC(C)CCC2C(C)C)cc1 (centres unmarked) [CPS-310] | – | – | not active | – | inactive | – | – | 6.3 | –
CC(C)[C@@H]1CC[C@@H](C)C[C@H]1C(=O)N[C@@H]1CCOC1=O [D-Hsl, (1R,2S,5R)-2-isopropyl-5-methyl-cyclohexanecarboxylic acid ((R)-2-oxo-tetrahydro-furan-3-yl)-amide] | robust and prolonged cooling | 2.5 | 1.3 h | 2 min | 78 min | 80 min | D-Hsl (*) | – | –
COC(=O)CCC(NC(=O)C1CC(C)CCC1C(C)C)C(=O)OC (centres unmarked) [Glu(OMe) Me Ester] | – | – | not active | – | not active | – | – | 2.2 | –
COC(=O)CNC(=O)C1CC(C)CCC1C(C)C (centres unmarked) [Gly Me Ester (WS-31), reference compound] | – | – | 0.3 h | 5 min | 20 min | 25 min | – | 2.4 | 0.6 µg
CCOC(=O)C(C)NC(=O)C1CC(C)CCC1C(C)C [L-Ala Et Ester] | – | – | 0.7 h | 8 min | 44 min | 52 min | – | 3.1 | 0.4 µg
COC(=O)C(C)NC(=O)C1CC(C)CCC1C(C)C [L-Ala Me Ester] | – | – | 1.3 h | 1 min | 79 min | 80 min | – | 2.8 | 0.6 µg
COC(=O)C(NC(=O)C1CC(C)CCC1C(C)C)C(C)C [L-Val Me Ester] | – | – | not active | – | not active | – | – | 4.2 | –
COC(=O)C1CCCN1C(=O)[C@@H]1C[C@H](C)CC[C@H]1C(C)C (some centres unmarked) [Pro Me Ester] | – | 3.3 | not active | – | not active | – | – | – | –
CC1CCC(C(C)C)C(C(=O)NC(C)C)C1 (centres unmarked) [WS-10, reference compound] | – | – | 0.3 h | 6 min | 19 min | 25 min | – | 4.1 | 0.4 µg
CCC(C)NC(=O)C1CC(C)CCC1C(C)C (centres unmarked) [WS-34, reference compound] | – | – | not active | – | inactive | – | – | 4.6 | 0.7 µg
CCOC(=O)CCNC(=O)C1CC(C)CCC1C(C)C (stereo not drawn) [β-Ala Et Ester] | – | – | 1.4 h | 3 min | 87 min | 90 min | – | 3.1 | 1.5 µg
